Source: patent US20060287251A1, “Combination therapy for glycaemic control” (priority 2003, published 2006)

Columns and labels:
[1] = In vivo inactivation (degradation) after oral administration to Wistar rats, LC/MS; conditions: LC/MS of plasma
Procedure: Glutaminyl thiazolidine was administered to Wistar rats orally. After application of placebo or glutaminyl thiazolidine, arterial blood samples were taken at 2.5, 5, 7.5, 10, 15, 20, 40, 60 and 120 min from the carotid catheter of the conscious unrestrained rats to determine the formation of degradation products of glutaminyl thiazolidine. For analysis, simple solid phase extraction procedure on C18 cartridges was used to isolate the compounds of interest from the plasma. The extracts were analysed using reversed-phase liquid chromatography on Lichrospher 60 RP Select B column hyphenated with tandem mass spectrometry operating in the APCI positive mode. An internal standard method was used for quantification.

plasma DPIV activity = molecular target: T1, plasma DPIV activity (Rattus norvegicus, UniProt P14740); experiment: Plasma DPIV inhibiting activity after intravasal and oral administration to Wistar rats; format: in vivo; conditions: 100 mg/kg b.w. vs. placebo, oral and intra-vasal administration
T1 construct: from tissue; host or cells: plasma of male Wistar rats
Procedure: Male Wistar rats (Shoe: Wist(Sho)) with a body weight ranging between 250 and 350 g were purchased from Tierzucht Schönwalde (Schönwalde, Germany). Animals were single-caged under conventional conditions with controlled temperature (22±2° C.) on a 12/12 hours light/dark cycle (light on at 06:00 AM). Standard pelleted chow (ssniff® Soest, Germany) and tap water acidified with HCl were allowed ad libitum. After ≧one week of adaptation at the housing conditions, catheters were implanted into the carotid artery of Wistar rats under general anaesthesia (i.p. injection of 0.25 ml/kg b.w. Rompun®[2%], BayerVital, Germany and 0.5 ml/kg b.w. Ketamin 10, Atarost GmbH & Co., Twistringen, Germany). The animals were allowed to recover for one week. The catheters were flushed with heparin-saline (100 IU/ml) three times per week. In case of catheter dysfunction, a second catheter was inserted into the contra-lateral carotid artery of the respective rat. After one week of recovery from surgery, this animal was reintegrated into the study. In case of dysfunction of the second catheter, the animal was withdrawn from the study. […]
Statistical evaluations and graphics were performed with PRISM® 3.02 (GraphPad Software, Inc.). All parameters were analysed in a descriptive manner including mean and SD.

[2] = molecular target: T2, Prolidase from porcine kidney (Sus scrofa, UniProt A0A5G2QQV1); experiment: Cross reacting enzymes: prolidase; format: biochemical; conditions: substrate Ile-Pro-OH
T2 construct: Prolidase from porcine kidney (ICN Biomedicals, Eschwege, Germany); purchased ICN Biomedicals, Eschwege, Germany; host or cells: porcine kidney
T2 sequence (A0A5G2QQV1 1-463): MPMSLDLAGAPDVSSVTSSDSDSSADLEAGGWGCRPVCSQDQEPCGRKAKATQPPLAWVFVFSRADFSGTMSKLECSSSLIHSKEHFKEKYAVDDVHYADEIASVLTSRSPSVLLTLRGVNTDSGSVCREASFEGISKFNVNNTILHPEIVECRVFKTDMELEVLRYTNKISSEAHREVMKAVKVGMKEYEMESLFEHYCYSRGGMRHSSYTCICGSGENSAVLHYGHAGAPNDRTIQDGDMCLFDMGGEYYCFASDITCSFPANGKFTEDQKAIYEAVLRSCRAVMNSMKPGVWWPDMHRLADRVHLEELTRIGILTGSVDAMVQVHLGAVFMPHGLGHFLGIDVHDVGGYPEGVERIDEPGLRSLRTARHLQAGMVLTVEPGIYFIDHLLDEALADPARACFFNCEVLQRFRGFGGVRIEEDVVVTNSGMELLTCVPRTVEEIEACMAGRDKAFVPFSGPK
Procedure: Glutaminyl pyrrolidine or glutaminyl thiazolidine were tested for their cross reacting potency against dipeptidyl peptidase I, prolyl oligopeptidase and prolidase.
Prolidase (EC 3.4.13.9) was first described by Bergmann & Fruton (Bergmann, M. & Fruton, J. S., 1937, J Biol. Chem. 189-202). Prolidase releases the N-terminal amino acid from Xaa-Pro dipeptides and has a pH optimum between 6 and 9. Prolidase from porcine kidney (ICN Biomedicals, Eschwege, Germany). was solved (1 mg/mL) in assay buffer (20 mM NH4(CH3COO)2, 3 mM MnCl2, pH 7.6). In order to get a fully active enzyme the solution was incubated for 60 min at room temperature. 450 μL glutaminyl pyrrolidine or glutaminyl thiazolidine in an concentration range of 5*10^−3 M-5*10^−7 M were admixed with 500 μL buffer solution (20 mM NH4(CH3COO)2, pH 7.6) and 250 μL Ile-Pro-OH (0.5 mM in the assay mixture). The assay mixture was pre-incubated at 30° C. for 5 min After pre-incubation, 75 μL Prolidase (1:10 diluted in assay buffer) were added and measurement was performed at 30° C. and λ=220 nm for 20 min using a UV/Vis photometer, UVW (Thermo Spectronic, Cambridge, UK). The IC50-values were calculated using Graphit 4.0.15 (Erithacus Software, Ltd., UK).

T1 sequence (P14740 38-767 limits assumed): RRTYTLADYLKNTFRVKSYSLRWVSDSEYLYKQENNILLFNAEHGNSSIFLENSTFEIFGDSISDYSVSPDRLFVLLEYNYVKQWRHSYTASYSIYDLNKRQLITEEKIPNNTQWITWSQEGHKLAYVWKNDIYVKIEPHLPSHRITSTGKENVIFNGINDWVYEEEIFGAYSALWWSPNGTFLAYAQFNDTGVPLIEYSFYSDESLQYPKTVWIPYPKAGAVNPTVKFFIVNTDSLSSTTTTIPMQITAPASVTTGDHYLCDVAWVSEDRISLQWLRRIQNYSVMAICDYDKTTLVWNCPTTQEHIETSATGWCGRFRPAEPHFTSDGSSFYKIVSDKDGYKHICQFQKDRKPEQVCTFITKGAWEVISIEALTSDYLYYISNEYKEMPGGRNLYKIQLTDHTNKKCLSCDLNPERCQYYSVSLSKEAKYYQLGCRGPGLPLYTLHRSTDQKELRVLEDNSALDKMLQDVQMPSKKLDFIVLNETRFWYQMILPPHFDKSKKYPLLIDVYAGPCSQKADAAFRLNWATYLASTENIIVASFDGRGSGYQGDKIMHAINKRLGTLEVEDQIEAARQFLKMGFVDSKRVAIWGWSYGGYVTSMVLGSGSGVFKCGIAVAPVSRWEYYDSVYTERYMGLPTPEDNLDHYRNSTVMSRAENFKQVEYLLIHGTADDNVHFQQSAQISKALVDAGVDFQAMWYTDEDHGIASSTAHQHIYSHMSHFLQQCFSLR

SMILES	degradation product in vivo [1]	plasma DPIV activity (plasma DPIV activity)	IC50 [2] [µM]
NC(=O)CC[C@H](N)C(=O)N1CCCC1 [glutaminyl pyrrolidine]	pyroglutaminyl pyrrolidine	inhibited plasma DPIV activity	340
NC(=O)CC[C@H](N)C(=O)N1CCSC1 [glutaminyl thiazolidine]	pyroglutaminyl thiazolidine	inhibited plasma DPIV activity	> 3000
